# Test results taken from US20100323033A1, “CANCER SENSITIZER COMPRISING CHLOROGENIC ACID” (priority 2007, published 2010).
# System: Human pancreatic carcinoma cell line AsPC-1 (doxorubicin resistant)
# Test: XTT assay of anticancer agent sensitivity in doxorubicin-resistant AsPC-1 cells
# Format: cell-based
# Details: 48 hrs, FIG. 1
# Method: Human pancreatic carcinoma cell line AsPC-1 (doxorubicin resistant) was purchased from ATCC (American Type Culture Collection, Manassas, Va., USA). AsPC-1 cell lines were maintained in media supplemented with 10% fetal bovine serum (Gibco BRL) at 37° C. in a humid 5% CO2 atmosphere, and subcultured every two or three days. XTT assay was conducted to examine whether chlorogenic acid increases the anticancer agent sensitivity. A modified MTT assay, XTT assay is a colorimetric method that determines the relative number of living cells, after treating cells with a compound degraded by a specific enzyme. AsPC-1 cells were seeded in 96-well plates (2×10^4 per well), and cultured for 24 hrs. The cells were treated with 0, 5, and 10 μM of doxorubicin, and 0, 5, 10, and […] of chlorogenic acid, and incubated for 48 hrs. 0.1 ml of active solution and 5 ml of XTT (2,3-Bis{2-methoxy-4-nitro-5[(sulfenylamino) carbonyl]-2H-tetrazolium-hydroxide}) were added to the 96-well plates, and 50 μl of reaction solution was added to each well, followed by incubation for 2 hrs. The plates were gently shaken for staining, and the absorbance was measured at 450 nm using a VERSAmax220 Automatic Microplate Reader (Molecular Devices Corp.).
smiles,measurement,setting,value
"O=C(/C=C/c1ccc(O)c(O)c1)O[C@@H]1C[C@](O)(C(=O)O)C[C@@H](O)[C@H]1O [chlorogenic acid, 3-[[3-(3,4-dihydroxyphenyl)-1-oxo-2-propenyl]oxy]-1,4,5-trihydroxycyclohexanecarboxylic acid]",dependence of cancer cell viability on chlorogenic acid concentration,combination with doxorubicin,"decreased, as the concentration of chlorogenic acid was increased"
same,"decrease of viability of cancer cells with chlorogenic acid plus anticancer agent, compared to anticancer agent alone","doxorubicin 0, 5, 10 μM with chlorogenic acid 0, 5, 10, 20μ, absorbance 450 nm",30%
